# Values quoted from earlier work in US20090130675A1, “Genes Involved in the Biosynthesis of Thiocoraline and Heterologous Production of Same” (PHARMA MAR, S.A., priority 2005, published 2009).
# What was measured:
# [1] = test system: cell lines of different types of solid tumors, such as melanoma, breast, non-microcytic lung and colon cancer; details: in vitro
# Gram-positive bacteria = details: against Gram-positive bacteria
# [2] = test system: human carcinoma xenografts; details: in vivo, human carcinoma xenografts (Faircloth et al. 1997)
substance,measurement,setting,value
Thiocoraline,capacity to inhibit the growth of cell lines,[1],inhibit the growth of cell lines
same,antibacterial activity,Gram-positive bacteria,shows antibacterial activity
same,antitumor activity,[2],marked antitumor activity
